Measurements from patent US4980349A, “Sulphonamides derived from diarylmethanes, the processes for preparing them and pharmaceutical compositions containing them” (SANOFI, priority 1986, dated 1990).
Entries after “also recorded” stand apart in the source; their conditions may differ.

Columns and labels:
[1] = system: foreign-body (sponge) granuloma in rats; assay: Experimental granuloma induced by foreign body, histological study; format: in vivo, Wistar rats; settings: second experiment, day 8; Table XIa
Description: (§1) This test consists in studying the subacute cellular phase which is developed in the 8 days which follow the implantation of a foreign body, a sponge of non-resorbable plastic, in the dorsal subcutaneous connective tissue in rats.
The granulomas formed are removed 8 days after the implantation; a histological study is carried out after fixing the tissue and staining sections with hematein/ eosin. The observation is more especially concerned with the cell population of the primary phase of the formation of the granulation tissue: the reticulohistocytic cells, lymphocytes and more especially the macrophages.
(§2) The animals used are Wistar rats weighing 120-140 g and of the same origin, maintained under the same conditions of housing throughout the treatment (8 days).
(§3) The compounds of the invention are administered orally, in a gum suspension, in the morning in a fasted state, using an oesophageal tube.
After 8 days of treatment, the rats are sacrificed by decapitation and the granulomas removed and prepared for the purpose of histological examination.
The experiment conditions are as follows:
The animals are distributed in batches of 10;
Each test product is administered at 2 doses, of 50 and 100 mg, respectively, to 2 batches of 10 animals;
Ketoprofen is used by way of reference product at the same 2 doses and under the same conditions; and
A batch of 10 control animals receives no treatment.
(§4) In this experiment, on the one hand a histological study of the granulomas is performed by sampling on day 8 (results recorded in Table XIa), and on the other hand a study of the weight of the granulomas was performed 10 days after the implantation (results recorded in Table XIb).

[2] = system: pain threshold of brewer's yeast inflamed rat hind foot; assay: Randall and Sellitto's test (analgesic activity); format: in vivo; settings: second experiment, Table XIIa; for change in vivo at 25 mg/kg: 25 mg/kg oral; for change in vivo at 25 mg/kg / change in vivo at 50 mg/kg / change in vivo at 100 mg/kg: read-out: percentage increase in the mean pain threshold; for change in vivo at 50 mg/kg: 50 mg/kg oral; for change in vivo at 100 mg/kg: 100 mg/kg oral
Description: Inflammation increases the sensitivity to pain, in particular to pressure, and analgesics raise the threshold of the sensitivity.
The inflammation is obtained by injecting 0.1 ml of a 20% strength aqueous suspension of brewer's yeast under the plantar aponeurosis of one of the hind feet. […] The pain threshold is assessed in terms of the force necessary and sufficient to initiate a characteristic reaction of withdrawing the foot.
The sensitivity to pain of the inflamed foot reaches a plateau 4 hours after the injection of the brewer's yeast, and then remains stable until the 6th hour. The pain threshold of the inflamed foot in control rats weighing 140 g is reached for pressures of 50 to 60 g, whereas it is around 160 g for the intact foot.
The action of the substance administered orally to series of 10 rats is expressed in terms of the percentage increase in the mean pain threshold, compared with that measured in the rats of a control series of 10 animals which have not received a compound of the invention.
The test products are administered orally (stomach tube) one hour before the injection of brewer's yeast.
The comparative compound used is ketoprofen.

[3] = system: rat hind foot kaolin-induced arthritis; assay: Kaolin-induced arthritis test, second experiment, chronic phase (weight of the foot at the 12th hour); format: in vivo; settings: po, 12 h, Table IXb; for change in vivo at 25 mg/kg / change in vivo at 50 mg/kg / change in vivo at 100 mg/kg: 12th hour, read-out: percentage significant decrease in the weight of the treated foot; for ED50: foot weight, read-out: 50% active dose
Description: (§5) The […] of 0.05 ml of a sterile 10% strength suspension of kaolin into the metatarsal flexor sheath of the hind foot of a rat initially induces an oedematous reaction. An inflammatory arthritis then forms.
(§6) The test products are administered orally (stomach tube) one hour before the injection of the kaolin.
(§7) In a second experiment, a more elaborate study was performed in order to ascertain the effect of the products, on the one hand on the acute phase of the inflammatory reaction (measured by the volume of the foot at the 8th hour), and on the other hand on the chronic phase (activity measured by the weight of the foot at the 12th hour).
As in the previous experiment, ketoprofen was used as the comparative product: […]

[4] = system: biosynthesis of leukotrienes B4 (LTB4), human polymorphonuclear leukocytes; assay: Biosynthesis of LTB4, isomers and oxidized metabolites in human polymorphonuclear leukocytes; format: cell-based; settings: Leukocyte, second experiment, read-out: Percentage inhibition of LTB4 formation
Description: Polymorphonuclear leukocytes are isolated from human blood and used during the 6 hours following the withdrawal. The viability of the cells is checked by trypan blue exclusion.
5×10^6 cells are incubated for 10 minutes at 37° C. in the presence of the test product dissolved in DMSO, and are stimulated with ionophore A 23187 (Galbiochem, 10 μM) in PBS buffer at pH 7.4, Ca^2+ and Mg^2+ =1 μM.
100 ng of prostaglandin B2 (PGB2), dissolved in methanol, are added at the end of the reaction to act as an internal standard.
On centrifugation, the culture supernatant is withdrawn. The latter is retrieved under argon and stored at -80° C. until analysed by HPLC.
This analysis is carried out by injecting 250 μl onto a 5 μm ODS ultrasphere column (Beckmann), with a gradient of acetonitrile (20-80%) in water, at pH 7.4.
The amounts of the different products which absorb at 269 nm, i.e. leukotrienes B4 (LTB4), isomers of LTB4 and oxidized metabolites of LTB4, are estimated by comparison with the internal standard.
The test product is used at a concentration of 40 μM.
They are expressed either as a percentage inhibition, or as a percentage increase in the production of LTB4, isomers of LTB4 and oxidized metabolites of LTB4 (designated by +).
The experimental model is the same as that described in Section 2.1. Other products are tested by comparison with the compound of the invention no. 1574, used as a control.

[5] = system: rat hind foot carragheenin-induced oedema; assay: Carragheenin-induced oedema test; format: in vivo; settings: 3 h, second experiment, Table Xa, read-out: percentage inhibition of the inflammation; for change in vivo at 25 mg/kg: 25 mg/kg oral; for change in vivo at 50 mg/kg: 50 mg/kg oral; for change in vivo at 100 mg/kg: 100 mg/kg oral
Description: In this test, 10 rats are used per test compound of the invention. Control batches of 10 rats also receive either the comparative compound (ketoprofen) or exclusively an NaCl solution.
The compounds of the invention are administered orally (stomach tube) one hour before the injection of carragheenin.
The carragheenin is suspended at a concentration of 1% in a 0.9% isotonic sodium chloride solution. The volume injected into the rat's foot is 0.20 ml.
The volume of the foot is measured before the injection and 3 hours later. The antagonistic effect of the products towards carragheenin is reflected in the inhibition of the volume of the oedema compared with control rats. The latter receive only isotonic NaCl solution under identical conditions.

[6] = system: foreign-body (sponge) granuloma in rats; assay: Experimental granuloma induced by foreign body, weight of the granulomas; format: in vivo, Wistar rats; settings: Rattus norvegicus, po, 240 h, 10 days after implantation, Table XIb, read-out: decrease in the weight of the granulomas
Description: as §1, §2, §3, §4

[7] = system: rat hind foot kaolin-induced arthritis; assay: Kaolin-induced arthritis test, second experiment, acute phase (volume of the foot at the 8th hour); format: in vivo; settings: po, 8 h, Table IXa; for change in vivo at 25 mg/kg / change in vivo at 50 mg/kg / change in vivo at 100 mg/kg: 8th hour, read-out: percentage significant decrease in the volume of the treated foot; for ED50: foot volume, read-out: 50% active dose
Description: as §5
The early oedematous reaction appears from the first hour, and reaches its maximum between the fourth hour and the sixth hour. This is the manifestation of interest. The assessment of the volume of the foot enables the action of substances on the oedematous reaction to be studied. The measurements are carried out using a Giono and Chevilard plethysmometer.
as §6, §7
As in the previous experiment, ketoprofen was used as the comparative product:
The results are expressed as a percentage significant decrease in the volume of the treated foot compared with the controls.

Structure (SMILES) | histological study of the granuloma (inflammatory connective / granulation tissue) [1] | change in vivo at 25 mg/kg [2] [%] | change in vivo at 50 mg/kg [2] [%] | change in vivo at 100 mg/kg [2] [%] | change in vivo at 25 mg/kg [3] [%] | change in vivo at 50 mg/kg [3] [%] | change in vivo at 100 mg/kg [3] [%] | ED50 [3] [mg/kg] | inhibition at 40 µM [4] [%] | change in vivo at 25 mg/kg [5] [%] | change in vivo at 50 mg/kg [5] [%] | change in vivo at 100 mg/kg [5] [%] | change in vivo at 25 mg/kg [6] [%] | change in vivo at 50 mg/kg [6] [%] | change in vivo at 100 mg/kg [6] [%] | change in vivo at 25 mg/kg [7] [%] | change in vivo at 50 mg/kg [7] [%] | change in vivo at 100 mg/kg [7] [%] | ED50 [7] [mg/kg] | ED50 ([2]; po, analgesia, read-out: 50% active dose) [mg/kg]
O=C(O)CCCCCCCCCCCNS(=O)(=O)c1ccc(Cl)cc1C(=O)c1ccccc1Cl [Compound 1755] | Granuloma poorly developed | 40 | 50 | 55 | -45 | -55 | -58 | 25 | 100 | -45 | -52 | -55 | -45 | -50 | -55 | -48 ± 5 | -50 ± 5 | -55 ± 5 | 25 | –
O=C(O)CCCCCCCCCCNS(=O)(=O)c1ccc(Cl)c(C(=O)c2ccc(Cl)cc2)c1 [Compound 1761] | Diminished production of inflammatory granulation | 40 | 45 | 50 | -40 ± 5 | -45 ± 5 | -50 ± 5 | 100 | 100 | -30 | -35 | -45 | -25 | -30 | -45 | -38 ± 5 | -45 ± 5 | -50 ± 5 | 100 | –
O=C(O)CCCCCCCCCCNS(=O)(=O)c1ccc(Cl)c(C(=O)c2ccc(Cl)cc2Cl)c1 [Compound 1763] | Peripheral shell of low density | 40 | 42 | 45 | -38 ± 5 | -40 ± 5 | -48 ± 5 | 100 | 100 | -30 | -35 | -45 | -15 | -20 | -45 | -35 ± 5 | -45 ± 5 | -50 ± 5 | 100 | –
O=C(O)CCCCCCCCCCCNS(=O)(=O)c1ccc(Cl)c(C(=O)c2ccc(Cl)cc2Cl)c1 [Compound 1764] | Peripheral shell of low density; also recorded: lightly inflammatory | 50 | 55 | 58 | -45 ± 5 | -52 ± 5 | -58 ± 5 | 50 | 100 | -45 | -48 | -52 | -45 | -50 | -55 | -45 ± 5 | -55 ± 5 | -60 ± 5 | 50 | 25
